Laboratory results: EP0586525B1, “CARBOXAMIDO-(1,2N)-CARBOCYCLIC-2-AMINOTETRALIN DERIVATIVES” (priority 1991, dated 1992)
pIC50: −log10 of the molar value.

Legend:
[1] = Oral plasma bioavailability; assay type: in vivo; details: rat, 6 mg/kg, conscious rats
Procedure: Oral Bioavailability: Comparison of the disappearance of compound from plasma following oral (6 mg/kg) and intravenous (2 mg/kg) administration in conscious rats. Parent compound in plasma was measured at multiple time points following administration using HPLC methodology. Bioavailability is expressed as a percentage of the drug in plasma following oral administration compared to that following intravenous administration.

[2] = tested on: dorsal raphe 5-HT cell firing; assay: 5-HT cell firing in chloral hydrate anesthetized rats; assay type: in vivo; details: Rattus norvegicus, iv, read-out: Depression of 5-HT cell firing, ED50
Text: 5-HT Cell Firing: The i.v. mg/kg dose causing a 50% depression in the firing of dorsal raphe 5-HT cell firing in chloral hydrate anesthetized rats.

[3] = tested on: spontaneous sympathetic activity; assay: Sympathetic nerve discharge (SND) in chloralose anesthetized cats; assay type: in vivo; details: Felis catus, iv, dose range 0.001-1.0 mg/kg, read-out: Sympathetic nerve discharge, ED50 dose which inhibits spontaneous sympathetic activity
Procedure: Sympathetic Nerve Discharge (SND): The i.v. mg/kg dose causing a 50% depression in SND in chloralose anesthetized cats and the maximum inhibition of sympathetic activity observed in the dose range tested (0.001-1.0 mg/kg i.v.).

[4] = Blood pressure at the SND ED50 dose (BP SND/MAX); assay type: in vivo; details: at the dose which inhibited sympathetic activity by 50%, i.v., chloralose anesthetized cats
Procedure: BP SND/MAX: The blood pressure of the chloralose anesthetized cats in percent control at the dose causing 50% depression in SND and the maximum reduction in blood pressure as percent of the control blood pressure in the same animals observed in the dose range tested (0.001-1.0 mg/kg i.v.).

[5] = target: T1, 5-hydroxytryptamine (5-HT1A) receptor (Bos taurus, UniProt F6Q2H9); assay: Inhibition of 8-OH-DPAT binding in a bovine brain homogenate; details: read-out: Binding at the 5-HT1A receptor site, IC50
T1 construct: from tissue; host or cells: bovine brain homogenate
T1 sequence (F6Q2H9 1-422): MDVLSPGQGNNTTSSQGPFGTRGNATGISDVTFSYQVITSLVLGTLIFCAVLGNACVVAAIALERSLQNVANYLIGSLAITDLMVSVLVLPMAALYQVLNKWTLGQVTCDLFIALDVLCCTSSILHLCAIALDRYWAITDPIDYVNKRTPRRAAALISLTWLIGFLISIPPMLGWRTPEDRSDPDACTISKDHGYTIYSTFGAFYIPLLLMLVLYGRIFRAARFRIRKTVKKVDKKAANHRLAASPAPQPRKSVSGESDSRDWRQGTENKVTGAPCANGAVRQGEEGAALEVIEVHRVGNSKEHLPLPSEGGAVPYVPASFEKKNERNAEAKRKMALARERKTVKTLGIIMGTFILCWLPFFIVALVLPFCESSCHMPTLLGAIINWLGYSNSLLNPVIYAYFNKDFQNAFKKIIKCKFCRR
Text: Binding: Inhibition of 8-OH-DPAT binding in a bovine brain homogenate. Potency is given as nM dose required to inhibit 50% of DPAT binding (IC50). This test measures ability to bind to 5-hydroxytryptamine (5-HT1A) receptor.

[6] = tested on: rat hepatocytes; assay: In vitro rat hepatocyte intrinsic clearance; assay type: in vitro ADME; details: for In vitro hepatocyte assay clearance: 2, 5 and 15 µg/ml, 60 minute incubation at 37°C, rat hepatocytes 5.0 million cells/ml; for relative metabolic stability (rel. stab.): relative to cis-(±)2,3,3a,4,5,9b-hexahydro-9-carboxamido-3-(n-propyl)-1H-benz[e]indole, rat hepatocytes
Procedure: Aliquots of each incubate were withdrawn at preset times during the incubation and analyzed for parent compound using HPLC methodology. Intrinsic clearance is expressed as ml/min/5 million cells and metabolic stability relative to cis-(+)2,3,3a,4,5,9b-hexahydro-9-carboxamide-3-(n-propyl)-1H-benz[e]indole is determined.

[7] = Pharmacokinetics following constant infusion (steady state clearance); details: plasma, iv; after 12 hour infusion (300 µg/hour), anesthetized rat; read-out: In vivo steady state clearance
Procedure: Pharmacokinetics Following Constant Infusion: Clearance rate (ml/min/kg) was determined following a 12 hour infusion (300 µg/hour) of compound in the anesthetized rat. Disappearance of parent compound from plasma was measured at multiple time points following cessation of the infusion using HPLC methodology.

[8] = Mouse hypothermia; assay type: in vivo; details: dose depressing temperature by 2°C or more in two of four mice
Procedure: Hypothermia: Starting with a dose of 30 mg/kg, four mice are injected subcutaneously with test compound. Twenty minutes later, the number of animals whose body temperature has decreased by 2°C. or more are counted. If all four animals reach criteria, the drug is considered "active", and subsequent readings are taken at 60 and 120 minutes after drug. The time for last statistically significant drug affect on mean body temperature is indicated in minutes. […] Active compounds are retested using oral administration. Potency is given as mg/kg ED50 (dose required to depress temperature in two of four mice) as measured by Spearman-Karber statistics.

[9] = rat, in vivo; cited from earlier work
[10] = sc, subcutaneous (s.c.) administration

Row | bioavailability ([1]; Study 1, oral 6 mg/kg vs i.v. 2 mg/kg) | bioavailability ([1]; Study 2, samples taken for 24 hours after administration, oral 6 mg/kg vs i.v. 2 mg/kg) | pIC50 [5] | In vitro hepatocyte assay clearance [6] | relative metabolic stability (rel. stab.) [6] | clearance [7] | bioavailability ([1]; study not given, oral 6 mg/kg vs i.v. 2 mg/kg) | Structure (SMILES) | ED50 [2] | ED50 [3] | Percent of control arterial blood pressure [4] | ED50 ([8]; oral (p.o.) administration) | ED50 [8, 10] | plasma oral bioavailability [9]
1 | 59% | 70% | 8.28 | .013 ml/min/5 million cells | 1.0 | 58 mL/min/kg |  | CCCN1CC[C@H]2c3c(cccc3C(N)=O)CC[C@H]21 (racemic) [Compound 1, cis-(±)2,3,3a,4,5,9b-hexahydro-9-carboxamido-3-(n-propyl)-1H-benz[e]indole] | 0.002 mg/kg | 0.037 mg/kg | 82% | 7.3 mg/kg | 0.97 mg/kg | 
2 |  |  | 7.99 |  |  |  |  | CCCN1CC[C@H]2c3c(cccc3C(N)=O)CC[C@H]21 (single isomer, unassigned) [Compound 2, cis-(-)2,3,3a,4,5,9b-hexahydro-9-carboxamido-3-(n-propyl)-1H-benz[e]indole] | 0.006 mg/kg | 0.019 mg/kg | 84% |  |  | 
3 |  |  | 6.27 |  |  |  |  | CCCN1CCC2c3c(cccc3C(N)=O)CCC21 (single isomer, unassigned) [Compound 3, cis-(+)2,3,3a,4,5,9b-hexahydro-9-carboxamido-3-(n-propyl)-1H-benz[e]indole] | > 0.3 mg/kg | > 1 mg/kg |  |  |  | 

Further lines, the molecule ahead of its results:

Row | Structure (SMILES) | bioavailability ([1]; Study 1, oral 6 mg/kg vs i.v. 2 mg/kg) | bioavailability ([1]; Study 2, samples taken for 24 hours after administration, oral 6 mg/kg vs i.v. 2 mg/kg) | pIC50 [5] | In vitro hepatocyte assay clearance [6] | relative metabolic stability (rel. stab.) [6] | clearance [7] | bioavailability ([1]; study not given, oral 6 mg/kg vs i.v. 2 mg/kg) | ED50 [2] | ED50 [3] | Percent of control arterial blood pressure [4] | ED50 ([8]; oral (p.o.) administration) | ED50 [8, 10] | plasma oral bioavailability [9]
4 | CCCN1CCCC2c3c(cccc3C(N)=O)CCC21 (racemic) [Compound 4, trans-(±)1,2,3,4,4a,5,6,10b-octahydro-10-carboxamido-4-(n-propyl)-benzo[f]quinoline] |  |  | 8.43 |  |  |  |  |  |  |  | 4.1 mg/kg | 0.23 mg/kg | 
5 | CCCN1CCCC2c3c(cccc3C(N)=O)CCC21 (single isomer, unassigned) [Compound 5, trans-(-)1,2,3,4,4a,5,6,10b-octahydro-10-carboxamido-4-(n-propyl)-benzo[f]quinoline] |  |  | 8.82 | .012 ml/min/5 million cells | 3.59 | 43 mL/min/kg | 86% | > 0.1 mg/kg | 0.15 mg/kg | 85% |  | 1.73 mg/kg | 
6 | CCCN1CCC[C@H]2c3c(cccc3C(N)=O)CC[C@@H]21 (single isomer, unassigned) [Compound 6, trans-(+)1,2,3,4,4a,5,6,10b-octahydro-10-carboxamido-4-(n-propyl)-benzo[f]quinoline] |  |  |  |  | 1.05 |  |  |  |  |  |  |  | 
7 | CCCN(CCC)C1CCc2cccc(O)c2C1 (centres unmarked) [8-OH DPAT] |  |  |  |  |  |  |  |  |  |  |  |  | < 5%
